One experiment deals with A549 cells. As to the kind of experiment: Transwell cell migration test. It is filed as cell-based. To be noted: 2 μM, 12 h. As to the method: In addition, Transwell test was also conducted to determine the effect of the expression level of AURKB on the cell migration ability. Similarly, TZ47 (2 μM) was used to treat cells in the Transwell test. […] At the same time, compared to the control scr cells, AURKB-kd cells can partially antagonize the inhibitory effect of TZ47 on cell migration (FIGS. 10A-10B). […] The specific steps were described as follows. • a. Cell migration test • 1) The cells to be tested in the logarithmic growth phase was digested with trypsin and centrifuged to collect the cells. Then the cells were washed once with PBS and resuspended with serum-free DMEM for counting. • 2) 500 μl, of DMEM medium containing 10% FBS was added to a 24-well plate and a Transwell chamber was carefully placed into the plate to prevent air bubbles. Then 100 μL of cell suspension (about 50,000 cells) was added to the Transwell chamber, and a TZ47 solution (final concentration: 2 μM) was simultaneously added to the TZ47 treatment group. The 24-well plate was incubated at 37° C. and 5% CO2 in a cell incubator for 12 h. • 3) The Transwell chamber was removed from the plate and washed in PBS to remove the medium. […]

The target of a further experiment is AURKB (Homo sapiens, UniProt Q96GD4). Kind of experiment: Microscale thermophoresis (MST) binding to AURKB protein. Set-up: made in house; host or cells: E. coli BL21. Conditions: prokaryotically expressed GST-AURKB, read-out: dissociation constant of binding to AURKB protein. As for the experimental part:
Thus, it is speculated that the treatment affected the activity of a kinase which was able to phosphorylate the H3S10. The following procedures were conducted to verify whether TZ47 inhibited the activity of AURKB directly. First, prokaryotic expression of AURKB protein and purification were performed and then a microscale thermophoresis (MST) was used to detect the binding between TZ47 and AURKB protein by testing the change of microscale thermophoresis caused by the hydrated layer (generally derived from the change of the structure/conformation of biomolecules) based on the directional movement of particles in a microscopic temperature gradient. […] Flag-tagged AURKB protein was then enriched by M2-flag beads (anti-Flag antibody conjugated) from the lysed liquid of 293T cells and used in the in-vitro kinase activity analysis. It can be seen from FIGS. 6A-6B that the Flag-AURKB protein had kinase activity and can phosphorylate histone H3.
The cDNA of 293T cells of human was used as the template to amplify the AURKB CDS sequence in the presence of LATaq enzyme. […]
1 mL of the eluent was added to the EP tube containing GST beads, rotated at 4° C. for 30 min and centrifuged at 3,000 rpm for 3 min. […] An appropriate amount of the combined supernatant was subjected to SDS-PAGE for the determination of elution efficiency and protein purity and quantity. • b. […]
In general terms: MST reads how a fluorescent partner responds to local heating, with and without ligand.

Chain of AURKB (Q96GD4 1-345 isoform Q96GD4-5): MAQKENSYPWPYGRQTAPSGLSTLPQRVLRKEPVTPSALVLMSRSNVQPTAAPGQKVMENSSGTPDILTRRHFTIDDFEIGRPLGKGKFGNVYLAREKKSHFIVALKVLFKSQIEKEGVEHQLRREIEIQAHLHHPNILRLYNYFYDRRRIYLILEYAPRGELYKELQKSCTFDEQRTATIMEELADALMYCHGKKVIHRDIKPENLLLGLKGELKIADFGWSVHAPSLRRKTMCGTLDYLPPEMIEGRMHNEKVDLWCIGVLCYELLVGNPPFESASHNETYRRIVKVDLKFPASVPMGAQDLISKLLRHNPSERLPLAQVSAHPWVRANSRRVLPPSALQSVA

`c1ccc2c(Cc3[nH]c4ccccc4c3Cc3c[nH]c4ccccc34)c[nH]c2c1` [TZ47]: the “migration ability of cells” value in the experiment with A549 cells was “significantly showed inhibitory effect”. For the same compound, the Kd on AURKB was 135 ± 2 nM.

These data come from patent publication US11840525B2, “Use of AURKB small-molecule inhibitors for treatment of non-small cell lung cancer” (Nanjing China-Australia Institute of Translational Medicine …, priority 2016, dated 2023).
